Measured values as given in US20210355450A1, “CERVICAL CANCER ORGANOIDS” (Max-Planck-Gesellschaft zur Förderung der Wissenschaften …, priority 2018, published 2021).
“Also recorded” adds a separate entry of the source.

B1: RSPO1: Wnt agonist R-spondin 1, supplied as 25% conditioned medium (protein, UniProt Q2MKA7 21-263, looked up)
R-spondin-1: SRGIKGKRQRRISAEGSQACAKGCELCSEVNGCLKCSPKLFILLERNDIRQVGVCLPSCPPGYFDARNPDMNKCIKCKIEHCEACFSHNFCTKCKEGLYLHKGRCYPACPEGSSAANGTMECSSPAQCEMSEWSPWGPCSKKQQLCGFRRGSEERTRRVLHAPVGDHAACSDTKETRRCTVRRVPCPEGQKRRKGGQGRRENANRNLARKESKEAGAGSRRRKGQQQQQQQGTVGPLTSAGPA
modifications: conditioned medium
notes: Wnt agonist R-spondin 1, supplied as 25% conditioned medium

How the values were obtained:
[1] = test system: human ectocervical organoids; test: Human ectocervical organoid culture: formation, growth, differentiation; type: cell-based; conditions: for formation and expansion of squamous stratified organoids from single ectocervical stem cells: Wnt3a and RSPO1 together present in culture medium, human
Procedure: The medium consisted of ADF, 12 mM HEPES and 1% GlutaMax, supplemented with 1% B27, 1% N2, 0.5 μg/ml hydrocortisone (Sigma, #H0888-1G), 10 ng/ml human EGF (Invitrogen, #PHG0311), 100 ng/ml human noggin (Peprotech; #120-10C), 100 ng/ml human FGF-10 (Peprotech, #100-26-25), 1.25 mM N-acetyl-L-cysteine, 10 mM nicotinamide, 2 μM TGF-β R kinase Inhibitor IV, 10 μM ROCK inhibitor (Y-27632), 10 μM forskolin (Sigma, F6886) and 1% penicillin/streptomycin.
(§1) Cells isolated from tissue or the stem cells grown in 2D culture were mixed with 50 μl of ice cold Matrigel (BD, #356231) at a density of 20,000 cells, and the Matrigel droplet was placed in a pre-warmed 24-well plate and allowed to polymerize for 10 min at 37° C. The Matrigel droplet was then overlaid with 500 μl of pre-warmed human ecto- or endocervical medium. Cultures were kept at 37° C., 5% CO2 in a humidified incubator for 2-3 weeks and medium replaced every four days. For passaging the organoids, Matrigel was first dissolved by adding 1 ml of ice cold ADF and pipetting up and down 5 times. Organoids were collected in a 15 ml Falcon tube and a further 4 ml of ice cold ADF medium was added and organoids resuspended well to completely dissolve the Matrigel, followed by centrifugation at 300×g for 5 mins at 4° C. Medium was discarded and the ectocervical and mouse organoids were incubated with 1 ml of TrypLE Express for 30 min at 37° C. followed by mechanical fragmentation using a fire-polished glass Pasteur pipette by vigorous pipetting (8-10 times) to generate single cells. The single cells were then seeded at a 1:10 ratio back into Matrigel for expanding and culturing. Endocervical organoids were subjected to mechanical fragmentation as described above after centrifugation to generate fragments that were seeded back into Matrigel at 1:5 ratio. Matrigel was allowed to polymerize for 10 min at 37° C., overlaid with pre-warmed medium and cultured as described above.
(§2) Stem cells were counted and a defined number resuspended in 50 μl of Matrigel to generate organoids as described above. Between 2-3 weeks after plating images were taken of the whole well and the number and area of organoids formed were determined using ImageJ to calculate organoid forming efficiency.
Organoids were washed with cold PBS five times to remove Matrigel before fixing with 4% paraformaldehyde for 1 h at room temperature (RT) followed by washing with PBS twice. Organoids were then subjected to dehydration in an ascending ethanol series followed by isopropanol and acetone for 20 min each. The dehydrated organoids were paraffin embedded and 5 μm sections cut on a Microm HM 315 microtome. Mouse and human tissues were extensively washed with PBS and fixed using 4% PFA overnight at RT. Samples were subjected to dehydration in an ascending ethanol series followed by isopropanol and xylene (60 mins each) followed by paraffinization using a Leica TP1020 tissue processor. The tissue was embedded and 5 μm sections cut on a microtome. For immunostaining, paraffin sections were deparaffinized and rehydrated, followed by treatment with antigen retrieval solution (Dako, #S1699). Sections were blocked using blocking buffer (1% BSA and 2% FCS in PBS) for 1 h at RT. Primary antibodies were diluted in blocking buffer and incubated for 90 min at RT followed by five PSB washes before 1 h incubation with secondary antibodies diluted in blocking buffer along with Hoechst or Draq5. Sections were washed with PBS five times and mounted using Mowiol. […]

[2] = test system: mouse ectocervical organoids; test: Mouse ectocervical organoid culture: formation and expansion; type: cell-based; conditions: for formation and expansion of squamous stratified organoids from single ectocervical stem cells: Wnt3a and RSPO1 together present in culture medium, mouse; for effect of presence or absence of Wnt pathway activators on murine organoid culture: murine ectocervical organoid medium
Procedure: Cervical cells were cultured in ADF medium (Invitrogen, #12634) supplemented with 12 mM HEPES (Invitrogen, #15630-056), 1% GlutaMax (Invitrogen, #35050-038), 1% B27 (Invitrogen, #17504-044), 1% N2 (Invitrogen, #17502048), 50 ng/ml mouse epidermal growth factor (EGF) (Invitrogen, #PMG8043), 100 ng/ml mouse noggin (Peprotech, #250-38-100), 100 ng/ml human fibroblast growth factor (FGF)-10 (Peprotech, #100-26-25), 1.25 mM N-acetyl-L-cysteine (Sigma, #A9165-5G), 10 mM nicotinamide, (Sigma, #N0636), 2 μM TGF-β R Kinase Inhibitor IV (Calbiochem, #616454), 10 μM ROCK inhibitor (Y-27632) (Sigma, #Y0503), 1% penicillin/streptomycin (Gibco, #15140-122) with or without 25% Wnt3A- and 25% R-spondin1-conditioned medium, as described in Willert et al (46) and Farin et al (47).
as §1, §2

Row | Molecule | organoid growth (area of organoids) ([1]; grown in presence of γ-secretase inhibitor (Notch inhibition), FIG. 3H, 11D) | proliferation of organoids (Ki67) ([1]; presence of γ-secretase inhibitor, FIG. 3I) | differentiation and stratification of organoids ([1]; presence of γ-secretase inhibitor, immunolabelling CDH1, Ki67, p63, FIG. 3I) | formation and expansion of squamous stratified organoids from single ectocervical stem cells [1] | formation and expansion of squamous stratified organoids from single ectocervical stem cells [2] | effect of presence or absence of Wnt pathway activators on murine organoid culture [2]
1 | C[C@H](NC(=O)Cc1cc(F)cc(F)c1)C(=O)N[C@@H]1C(=O)N(C)c2ccccc2-c2ccccc21 [DBZ] | reduced organoid growth | reduces proliferation | failed to differentiate and stratify; also recorded: prevents differentiation | – | – | –
2 | Wnt3a | – | – | – | detrimental | detrimental | not to substantially effect
3 | B1 | – | – | – | detrimental | detrimental | not to substantially effect
